According to patent US11401254B2, “Substituted thiophenecarboxamides and analogues as antibacterials agents” (Bayer Aktiengesellschaft, priority 2018, dated 2022):

Legend:
[1] = Log P by HPLC on reversed phase columns (EEC directive 79/831 Annex V.A8); type: physicochemical; conditions: for chromatographic logP: reversed phase HPLC columns
Experimental: In the above tables, measurement of Log P values was performed according to EEC directive 79/831 Annex V.A8 by HPLC (High Performance Liquid Chromatography) on reversed phase columns with the following methods: • ^[a]
If more than one Log P value is available within the same method, all the values are given and separated by “+”.
Calibration was done with straight-chain alkan2-ones (with 3 to 16 carbon atoms) with known Log P values (measurement of Log P values using retention times with linear interpolation between successive alkanones). Lambda-max-values were determined using UV-spectra from 200 nm to 400 nm and the peak values of the chromatographic signals.

[2] = system: Xanthomonas campestris pv. campestris; assay: Xanthomonas campestris pv. campestris in vitro cell test (bacteria growth in liquid culture); type: cell-based; conditions: 20 ppm of tested compound; 24 h of incubation
Experimental: Example A: Xanthomonas Campestris pv. Campestris In Vitro Cell Test
Culture medium: LB broth medium (Luria Broth Miller) Sigma
Inoculum: bacteria suspension
Compounds to be tested were solubilized in DMSO and the solution used to prepare the required range of concentrations. The final concentration of DMSO used in the assay was ≤1%.
Inoculum was prepared from a pre-culture of bacteria grown in liquid medium and diluted to the desired optical density (OD).
Compounds were evaluated for their ability to inhibit bacteria growth in liquid culture assay. The compounds were added in the desired concentrations to culture medium containing the bacteria suspension. After 24 h of incubation, the efficacy of compounds was determined by spectrometric measurement of bacteria growth. Inhibition was determined by comparing the absorbance values in wells containing the compounds with the absorbance in control wells without compounds.

[3] = system: Xanthomonas campestris pv. campestris; assay: In vivo preventive test on Xanthomonas campestris pv. campestris (black rot on cabbage); conditions: Example C comparative table; same conditions as described in Example B; concentration not given
Experimental: Example B: In Vivo Preventive Test on Xanthomonas campestris pv. Campestris (Black Rot on Cabbage)
The tested compounds were prepared by homogenization in a mixture of acetone/Dimethyl sulfoxide/Tween®, and then diluted with water to obtain the desired concentration.
The young plants of cabbage were treated by spraying the compound prepared as described above. Control plants were treated only with an aqueous solution of acetone/Dimethyl sulfoxide/Tween®.
After 72 hours, the plants were contaminated by spraying the leaves with an aqueous bacteria suspension of Xanthomonas campestris pv. campestris. The contaminated cabbage plants were incubated for 8 or 10 days at 27° C. at 95% relative humidity.
The test was evaluated 8 or 10 days after the inoculation. 0% means an efficacy which corresponds to that of the control plants while an efficacy of 100% means that no disease was observed.
Compounds CMP3, CMP4, CMP5 and CMP6 were tested in an in vivo preventive test on Xanthomonas campestris pv. campestris (black rot on cabbage) in the same conditions as described in Example B.

[4] = method [a]: LC-UV, acidic range, 0.1% formic acid in water and acetonitrile as eluent

CCOC(=O)[C@@H](NC(=O)c1sc(Br)c(Br)c1C)C(C)C (racemic) [I.04, ethyl N-[(4,5-dibromo-3-methyl-2-thienyl)carbonyl]-valinate]
chromatographic logP [1, 4]: 4.32 | chromatographic logP ([1]; value given in preparation example, method variant not stated): 4.32 | direct activity (inhibition of bacteria growth) [2]: no direct activity | Efficacy (%) [3]: >90%

CC(C)CC(NC(=O)c1cc(Br)c(Br)s1)C(=O)O (centres unmarked) [CMP6, reference compound]
Efficacy (%) [3]: 15%

CCOC(=O)CNC(=O)c1sc(Br)c(Br)c1C [I.02]
LogP [1, 4]: 3.02^[a] | direct activity (inhibition of bacteria growth) [2]: no direct activity | Efficacy (%) [3]: >80%

Cc1c(C(=O)NC(C)C(=O)O)sc(Br)c1Br (centres unmarked) [I.79]
LogP [1, 4]: 2.39^[a] | Efficacy (%) [3]: >70%

Cc1c(C(=O)NC(CC(C)C)C(=O)O)sc(Br)c1Br (centres unmarked) [I.90]
Efficacy (%) [3]: >70%
